# Patent US20240336566A1, “CRYSTALLINE FORMS OF A COMPOUND FOR THE TARGETED DEGRADATION OF THE ANDROGEN RECEPTOR” (Arvinas Operations, Inc., priority 2023, published 2024)
# How the values were obtained:
# Format in all cases: physicochemical
# [1] = Dynamic vapour sorption (DVS) with XRPD of retained solid
# Procedure: 10-20 mg of sample was placed into a mesh vapour sorption balance pan and loaded into a DVS-1 dynamic vapour sorption balance by Surface Measurement Systems. The sample was subjected to a ramping profile from 40-90% relative humidity (RH) at 10% increments, maintaining the sample at each step until a stable weight had been achieved (dm/dt 0.004%, minimum step length 30 minutes, maximum step length 500 minutes) at 25° C. After completion of the sorption cycle, the sample was dried using the same procedure to 0% RH and then a second sorption cycle back to 40% RH. Two cycles were performed. The weight change during the sorption/desorption cycles were plotted, allowing for the hygroscopic nature of the sample to be determined. XRPD analysis was then carried out on any solid retained.
# [2] = Thermodynamic solubility determination in buffers (HPLC)
# Source text: No clear solubility advantage of the salts was noted over Compound A free base.
# [3] = 7-day stability assessment (appearance, HPLC, XRPD)
# Procedure: The material was gently ground to release any agglomerates and loaded onto a multi-well plate with Kapton or Mylar polymer film to support the sample. […] Data were visualized and images generated using the HighScore Plus 4.7 desktop application (PANalytical, 2θ17).
# They all remained white or off-white solids. • XRPD analysis determined the patterns were retained.
# [4] = Competitive slurry experiments of free base Patterns 1, 2 and 6 (XRPD); conditions: slurries of Patterns 1, 2 and 6; ambient or 40° C.
# Procedure: XRPD analysis of the second set of competitive slurry experiments was carried out on a Philips X'Pert Pro Multipurpose diffractometer equipped with a spinning stage autosampler. The samples were scanned between 5 and 34.997 °2θ using Cu K radiation (α1γ=1.54060 Å; α2=1.54443 Å; β=1.39225 Å; α1:α2 ratio=0.5) running in Bragg-Brentano geometry (step size 0.008 °2θ, step time 10.160 s, rotation period 2 s) using 40 kV/40 mA generator settings. Data were visualized and images generated using the HighScore Plus 4.7 desktop application (PANalytical, 2θ17).
# • Eight samples were prepared containing 10 mg of free base Patterns 1, 2, and 6. • The appropriate solvent systems were added and observations were noted. • After shaking at either ambient or 40° C., observations were noted and the samples were filtered centrifugally. The solids obtained were analyzed by XRPD.
# • Due to inconclusive results, the solids were returned to the sample vials and 100 μL of the appropriate solvent was added to each sample. The samples were then capped and sealed by parafilm and shaken at ambient or 40° C. as before. • After shaking for 72 hours, the solids were analyzed by XRPD. […]
# [5] = Heating experiment of Compound A free base Pattern 1 (1H NMR after heating to 250° C.); conditions: heated to 250° C. using the TG/DSC
# [6] = Buffer pH 1.2, 25° C., cf concentration of free base, listed as Compound A Free Base Pattern 1
# [7] = Buffer pH 3.0, 25° C., LOQ 0.00025 mg/mL
# [8] = buffer, 25 °C, pH 4, aqueous buffer, thermodynamic from solid, Buffer pH 4.0, LOQ 0.00025 mg/mL
# [9] = 7 days at 40° C./75% RH (open vial)
# [10] = 7 days at Ambient light (closed vial)
structure (smiles),measurement,setting,value
COc1cc(O[C@H]2C(C)(C)[C@H](NC(=O)c3ccc(N4CCC(CN5CCN(c6ccc(C(=O)N[C@H]7CCC(=O)NC7=O)c(F)c6)CC5)CC4)cc3)C2(C)C)ccc1C#N [free base Pattern 1],DVS hygroscopicity,[1],Slightly hygroscopic
same,Form change after DVS,[1],No
same,form by XRPD post DVS,[1],no form change
same,hygroscopic nature (DVS),[1]; 25° C.,slightly hygroscopic
same,mass uptake of water (DVS),[1]; RH not stated at the place,1.17 wt. %
same,"mass uptake of water (DVS), equivalents",[1]; RH not stated at the place,0.53 eq.
same,DVS water uptake,[1]; at 90% RH,1.17 wt. %
same,DVS water uptake (equivalents of water),[1]; at 90% RH,0.53 eq.
same,0 Hr Solubility,[2]; [6],0.1 µg/mL
same,4 Hr Solubility,[2]; [6],26.2 µg/mL
same,24 Hr Solubility,[2]; [6],69.3 µg/mL
same,0 Hr Solubility,[2]; [7],<0.25 µg/mL
same,4 Hr Solubility,[2]; [7],<0.25 µg/mL
same,24 Hr Solubility,[2]; [7],<0.25 µg/mL
same,solubility at 0 h,[2]; [8],< 0.25 µg/mL
same,solubility at 4 h,[2]; [8],< 0.25 µg/mL
same,solubility at 24 h,[2]; [8],< 0.25 µg/mL
same,thermodynamic solubility,"[2]; pH 1.2, after 24 hours, 25° C., as concentration of Compound A free base",69.3 µg/mL
same,HPLC purity,[3]; [9],99.00 % relative area
same,XRPD after stability storage,[3]; [9],No change
same,HPLC purity,"[3]; 7 days at 40° C./75% RH (open vial), listed as Free base Pattern 1",99.00 % relative area
same,HPLC purity,[3]; 7 days at 80° C. (closed vial),99.03 % relative area
same,XRPD after stability storage,[3]; 7 days at 80° C. (closed vial),No change
same,HPLC purity,"[3]; 7 days at 80° C. (closed vial), listed as Free base Pattern 1",99.03 % relative area
same,HPLC purity,[3]; [10],99.07 % relative area
same,XRPD after stability storage,[3]; [10],No change
same,HPLC purity,"[3]; 7 days at Ambient light (closed vial), listed as Free base Pattern 1",99.07 % relative area
same,Total impurities (HPLC),[3]; after 7 days at 40° C./75% RH,1.00 Rel. Area %
same,purity retained after stability storage (HPLC),"[3]; after 7 days at 40° C./75% RH (open vial), 80° C. (closed vial), ambient light (closed vial)",> 99 % relative area
same,Total impurities (HPLC),[3]; after 7 days at 80° C.,0.97 Rel. Area %
same,Total impurities (HPLC),[3]; after 7 days at ambient,0.93 Rel. Area %
same,Total impurities (HPLC),[3]; before stability testing,0.99 Rel. Area %
same,HPLC purity,[3]; before stability testing (condition N/A),99.01 % relative area
same,HPLC purity,"[3]; before stability testing (condition N/A), listed as Free base Pattern 1",99.01 % relative area
same,relative stability of forms (competitive slurry),[4],thermodynamic form
same,degradation after heating (1H NMR),[5],had not degraded
